# Reference: patent US9440952B2, “Compounds inhibiting leucine-rich repeat kinase enzyme activity” (Merck Sharp & Dohme Corp., priority 2013, dated 2016)
# Biological target: T1, LRRK2(G2019S mutation, GST-LRRK2(amino acids 970-2527)) (Homo sapiens, UniProt Q5S007, G2019S)
# T1 construct: GST-LRRK2(amino acids 970-2527); GST (N); purchased Life Technologies Corporation
# Test: LRRK2 Km ATP LanthaScreen Assay
# Type: biochemical
# Conditions: Km ATP LanthaScreen Assay; LRRK2 G2019S; mean IC50 values; Examples 185-215; read-out: LRRK2 IC5)
# Method: Unless otherwise noted, all LRRK2 IC50 data presented in tables refers to the LRRK2 Km ATP LanthaScreen™ Assay that is described in the Biological Assay section.
# The data presented for the 5 mM and Km ATP LanthaScreen™ Assay represents mean IC50 values based on several test results and may have reasonable. deviations depending on the specific conditions and reagents used. Reagents for the LRRK2 5 mM and Km ATP LanthaScreen™ Assay were purchased from Life Technologies Corporation.
# Results are analysed using Assay Data Analyzer.
# T1 sequence (Q5S007 970-2527 G2019S): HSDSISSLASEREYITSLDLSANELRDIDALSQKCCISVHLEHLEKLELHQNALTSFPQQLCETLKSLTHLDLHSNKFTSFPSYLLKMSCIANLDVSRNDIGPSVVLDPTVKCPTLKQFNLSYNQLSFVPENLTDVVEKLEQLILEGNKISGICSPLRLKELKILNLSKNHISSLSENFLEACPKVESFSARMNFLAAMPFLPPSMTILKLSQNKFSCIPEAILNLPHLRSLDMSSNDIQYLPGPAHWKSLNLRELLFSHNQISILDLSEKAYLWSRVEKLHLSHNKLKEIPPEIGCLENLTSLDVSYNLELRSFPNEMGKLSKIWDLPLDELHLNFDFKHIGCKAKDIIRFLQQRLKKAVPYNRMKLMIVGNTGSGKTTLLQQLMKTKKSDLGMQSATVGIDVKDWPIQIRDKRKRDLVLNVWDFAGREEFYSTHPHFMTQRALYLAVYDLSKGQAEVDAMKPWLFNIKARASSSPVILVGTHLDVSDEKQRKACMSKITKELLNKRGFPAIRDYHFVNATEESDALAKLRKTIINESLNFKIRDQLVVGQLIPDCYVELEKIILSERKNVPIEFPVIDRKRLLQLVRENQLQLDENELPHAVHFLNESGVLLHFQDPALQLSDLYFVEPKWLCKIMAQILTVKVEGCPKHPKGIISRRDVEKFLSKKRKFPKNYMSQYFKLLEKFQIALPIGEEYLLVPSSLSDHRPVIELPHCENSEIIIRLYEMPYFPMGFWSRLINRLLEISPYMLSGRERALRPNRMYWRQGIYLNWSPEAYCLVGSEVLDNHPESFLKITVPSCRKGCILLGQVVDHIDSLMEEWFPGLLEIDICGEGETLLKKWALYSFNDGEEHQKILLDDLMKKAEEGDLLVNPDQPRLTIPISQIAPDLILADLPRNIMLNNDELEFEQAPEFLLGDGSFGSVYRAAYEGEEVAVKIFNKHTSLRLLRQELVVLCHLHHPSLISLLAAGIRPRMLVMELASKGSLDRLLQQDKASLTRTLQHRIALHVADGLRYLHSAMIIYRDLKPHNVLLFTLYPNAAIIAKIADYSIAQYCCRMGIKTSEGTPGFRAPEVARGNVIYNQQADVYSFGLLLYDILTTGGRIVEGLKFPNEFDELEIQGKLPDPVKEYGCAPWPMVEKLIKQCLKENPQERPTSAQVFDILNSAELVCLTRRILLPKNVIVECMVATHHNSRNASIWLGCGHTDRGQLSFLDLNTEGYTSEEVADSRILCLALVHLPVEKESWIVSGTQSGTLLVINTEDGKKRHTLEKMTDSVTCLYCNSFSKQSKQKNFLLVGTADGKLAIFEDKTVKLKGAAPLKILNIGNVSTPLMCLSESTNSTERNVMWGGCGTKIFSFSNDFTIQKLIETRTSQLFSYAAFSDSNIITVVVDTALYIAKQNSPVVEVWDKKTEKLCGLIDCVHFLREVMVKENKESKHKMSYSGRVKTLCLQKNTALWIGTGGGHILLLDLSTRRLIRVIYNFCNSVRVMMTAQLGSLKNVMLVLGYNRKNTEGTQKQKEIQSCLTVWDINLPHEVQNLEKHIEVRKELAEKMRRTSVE
row,SMILES,IC50
1,CC(C)Oc1ccc2[nH]nc(-c3ccnc(N4CCS(=O)(=O)c5ccccc5C4)c3)c2c1 [Example 186],154 nM
2,CC(C)Oc1ccc2[nH]nc(-c3ccnc(N4CCC(n5cncn5)CC4)c3)c2c1 [Example 187],4 nM
3,CC(C)Oc1ccc2[nH]nc(-c3ccnc(N4CCCS(=O)(=O)CC4)c3)c2c1 [Example 188],21.4 nM
4,CC(C)Oc1ccc2[nH]nc(-c3ccnc(N4CCCN(S(C)(=O)=O)CC4)c3)c2c1 [Example 189],22.4 nM
5,CC(C)Oc1ccc2[nH]nc(-c3ccnc(N4CC(n5cccn5)C4)c3)c2c1 [Example 190],13.2 nM
6,CC(C)Oc1ccc2[nH]nc(-c3ccnc(N4CC[S+]([O-])CC4)c3)c2c1 [Example 191],7.4 nM
7,Cc1nnc(CN(C)c2cc(-c3n[nH]c4ccc(OC(C)C)cc34)ccn2)o1 [Example 192],25.3 nM
8,CC(C)Oc1ccc2[nH]nc(-c3ccnc(N4CCCC(c5nncn5C)C4)c3)c2c1 (stereo not drawn) [Example 193],6.2 nM
9,CC(C)Oc1ccc2[nH]nc(-c3ccnc(N4CCC(n5cnnc5)CC4)c3)c2c1 [Example 194],4.4 nM
10,CCc1nnc2n1CCN(c1cc(-c3n[nH]c4ccc(OC(C)C)cc34)ccn1)C2 [Example 195],7.2 nM
11,CC(C)Oc1ccc2[nH]nc(-c3ccnc(N4CCn5ccnc5C4)c3)c2c1 [Example 196],8.6 nM
12,Cc1nc2c(o1)CCN(c1cc(-c3n[nH]c4ccc(OC(C)C)cc34)ccn1)C2 [Example 197],12.8 nM
13,Cc1nc2c(o1)CN(c1cc(-c3n[nH]c4ccc(OC(C)C)cc34)ccn1)CC2 [Example 198],9.2 nM
14,CC(C)Oc1ccc2[nH]nc(-c3ccnc(N4CCN(c5ccccc5)C(=O)C4)c3)c2c1 [Example 199],8.9 nM
15,CC(C)Oc1ccc2[nH]nc(-c3ccnc(N4CCN(c5ccccn5)CC4)c3)c2c1 [Example 200],10.9 nM
16,CC(C)Oc1ccc2[nH]nc(-c3ccnc(N4CCCC4)c3)c2c1 [Example 201],5 nM
17,CC(C)Oc1ccc2[nH]nc(-c3ccnc(N4CCN(c5cnccn5)CC4)c3)c2c1 [Example 202],6.4 nM
18,CC(C)Oc1ccc2[nH]nc(-c3ccnc(N4CCN(c5nccs5)CC4)c3)c2c1 [Example 203],13.4 nM
19,CC(C)Oc1ccc2[nH]nc(-c3ccnc(N4CCN(c5ncccn5)CC4)c3)c2c1 [Example 204],7.9 nM
20,CC(C)Oc1ccc2[nH]nc(-c3ccnc(N4CCCC(c5ccncn5)C4)c3)c2c1 (stereo not drawn) [Example 205],6.4 nM
21,Cc1ncc(N2CCN(c3cc(-c4n[nH]c5ccc(OC(C)C)cc45)ccn3)CC2)s1 [Example 206],10.5 nM
22,Cc1nonc1N1CCN(c2cc(-c3n[nH]c4ccc(OC(C)C)cc34)ccn2)CC1 [Example 207],20.8 nM
23,CC(C)Oc1ccc2[nH]nc(-c3ccnc(N4Cc5cccnc5C4)c3)c2c1 [Example 208],17.5 nM
24,CC(C)Oc1ccc2[nH]nc(-c3ccnc(N4CCCN(c5ncccn5)CC4)c3)c2c1 [Example 209],25.5 nM
25,CC(C)Oc1ccc2[nH]nc(-c3ccnc(N4CCN(C5CC5)CC4)c3)c2c1 [Example 210],7.4 nM
26,CC(C)Oc1ccc2[nH]nc(-c3ccnc(N4CCN(CC5CC5)CC4)c3)c2c1 [Example 211],6.2 nM
27,CC(C)Oc1ccc2[nH]nc(-c3ccnc(N4CCN(c5ncc6ccccc6n5)CC4)c3)c2c1 [Example 212],70.6 nM
28,CC(C)Oc1ccc2[nH]nc(-c3ccnc(N4CC(F)(F)C4)c3)c2c1 [Example 213],16.7 nM
29,CC(C)Oc1ccc2[nH]nc(-c3ccnc(N4CCn5nc(C6CC6)nc5C4)c3)c2c1 [Example 214],15.4 nM
30,Cc1nnc(C2CCN(c3cc(-c4n[nH]c5ccc(OC(C)C)cc45)ccn3)CC2)o1 [Example 215],6 nM

# Same assay, conditions: Km ATP LanthaScreen Assay; LRRK2 G2019S; mean IC50 values; read-out: LRRK2 IC50
row,SMILES,IC50
1,CC(C)Oc1ccc2[nH]nc(-c3ccnc(NC(=O)C4CCN(c5ccccn5)C4)c3)c2c1 (stereo not drawn) [Example 167],78 nM
2,CC(C)Oc1ccc2[nH]nc(-c3ccnc(NC(=O)CC4COCCO4)c3)c2c1 (stereo not drawn) [Example 168],33.4 nM
3,CC(C)Oc1ccc2[nH]nc(-c3ccnc(NC(=O)c4cc(F)cc(F)c4)c3)c2c1 [Example 169],169 nM
4,CC(C)Oc1ccc2[nH]nc(-c3ccnc(N4CCCC(O)C4)c3)c2c1 (stereo not drawn) [Example 170],6.4 nM
5,CC(C)Oc1ccc2[nH]nc(-c3ccnc(N4CCC(n5ccnc5)C4)c3)c2c1 (stereo not drawn) [Example 171],3.1 nM
6,CO[C@H]1CN(c2cc(-c3n[nH]c4ccc(OC(C)C)cc34)ccn2)C[C@@H]1O [Example 172],27.1 nM
7,CC(C)Oc1ccc2[nH]nc(-c3ccnc(N4CCC(n5cccn5)CC4)c3)c2c1 [Example 173],4.9 nM
8,CC(C)Oc1ccc2[nH]nc(-c3ccnc(N4C[C@H](F)[C@@H](F)C4)c3)c2c1 [Example 174],6.6 nM
9,CC(C)Oc1ccc2[nH]nc(-c3ccnc(N4CCC(c5ccncc5)C4)c3)c2c1 (stereo not drawn) [Example 175],2.2 nM
10,CC(C)Oc1ccc2[nH]nc(-c3ccnc(N4C[C@@H]5C[C@H]4CO5)c3)c2c1 [Example 176],7.1 nM
11,CO[C@H]1CCN(c2cc(-c3n[nH]c4ccc(OC(C)C)cc34)ccn2)C1 [Example 177],5.2 nM
12,CO[C@@H]1CCN(c2cc(-c3n[nH]c4ccc(OC(C)C)cc34)ccn2)C1 [Example 178],5 nM
13,CC(C)Oc1ccc2[nH]nc(-c3ccnc(N4C5CCCC4CC5)c3)c2c1 [Example 179],17.7 nM
14,CC(C)Oc1ccc2[nH]nc(-c3ccnc(N4CC(n5cnnc5)C4)c3)c2c1 [Example 180],10.2 nM
15,CC(C)Oc1ccc2[nH]nc(-c3ccnc(N4CC[C@H](O)C4)c3)c2c1 [Example 181],8.2 nM
16,CC(C)Oc1ccc2[nH]nc(-c3ccnc(N4CC(O)(C(F)(F)F)C4)c3)c2c1 [Example 182],10.8 nM
17,COC1CN(c2cc(-c3n[nH]c4ccc(OC(C)C)cc34)ccn2)C1 [Example 183],5.3 nM
18,CC(C)Oc1ccc2[nH]nc(-c3ccnc(N4CC(S(C)(=O)=O)C4)c3)c2c1 [Example 184],5.4 nM
19,CCOc1ccc2[nH]nc(-c3ccnc(N4CCC(F)(F)CC4)c3)c2c1 [Example 216],5.4 nM
20,CCOc1ccc2[nH]nc(-c3ccnc(N4CCN(C)C(=O)C4)c3)c2c1 [Example 217],4.9 nM
21,CCOc1ccc2[nH]nc(-c3ccnc(N4CCC(n5cccn5)CC4)c3)c2c1 [Example 218],14.4 nM
22,CCOc1ccc2[nH]nc(-c3ccnc(N4CC(C#N)(c5ccccc5)C4)c3)c2c1 [Example 219],70 nM
23,CCOc1ccc2[nH]nc(-c3ccnc(N4CCC5OCCC54)c3)c2c1 (stereo not drawn) [Example 220],22.6 nM
24,CCOc1ccc2[nH]nc(-c3ccnc(N4C[C@@H]5C[C@H]4CO5)c3)c2c1 [Example 221],20.9 nM

row,SMILES,IC50
1,CCOc1ccc2[nH]nc(-c3ccnc(N4CCC(n5cccn5)C4)c3)c2c1 (stereo not drawn) [Example 222],9.3 nM
2,CCOc1ccc2[nH]nc(-c3ccnc(N4CCC(F)(F)C4)c3)c2c1 [Example 223],13.5 nM
3,CCOc1ccc2[nH]nc(-c3ccnc(N4CCC(C#N)(c5ccccc5)C4)c3)c2c1 (stereo not drawn) [Example 225],16.3 nM
4,CCOc1ccc2[nH]nc(-c3ccnc(N4CCn5ccnc5C4)c3)c2c1 [Example 226],18.9 nM
5,CCOc1ccc2[nH]nc(-c3ccnc(N4CC[C@@H](OC)C4)c3)c2c1 [Example 227],11.3 nM
6,CCOc1ccc2[nH]nc(-c3ccnc(N4C5CCCC4CC5)c3)c2c1 [Example 228],48.9 nM
7,CCOc1ccc2[nH]nc(-c3ccnc(N4CC5C(C4)C5(C#N)c4ccccn4)c3)c2c1 (stereo not drawn) [Example 229],113 nM
8,CCOc1ccc2[nH]nc(-c3ccnc(N4CCC4)c3)c2c1 [Example 230],29.4 nM
9,OC1CCN(c2cc(-c3n[nH]c4ccc(OC(F)(F)F)cc34)ccn2)CC1 [Example 231],82.7 nM
10,FC(F)(F)Oc1ccc2[nH]nc(-c3ccnc(N4CCCCC4)c3)c2c1 [Example 232],279 nM
11,FC(F)(F)Oc1ccc2[nH]nc(-c3ccnc(N4CCCC4)c3)c2c1 [Example 233],130 nM
12,CN1CCN(c2cc(-c3n[nH]c4ccc(OC(F)(F)F)cc34)ccn2)CC1 [Example 234],82.5 nM
13,FC(F)(F)Oc1ccc2[nH]nc(-c3ccnc(N4CCN(c5ncccn5)CC4)c3)c2c1 [Example 235],476 nM
14,CS(=O)(=O)C1CN(c2cc(-c3n[nH]c4ccc(OC(F)(F)F)cc34)ccn2)C1 [Example 236],106 nM
15,FC(F)(F)CN1CCN(c2cc(-c3n[nH]c4ccc(OC(F)(F)F)cc34)ccn2)CC1 [Example 237],279 nM
16,CO[C@H]1CN(c2cc(-c3n[nH]c4ccc(OC(F)(F)F)cc34)ccn2)C[C@@H]1O [Example 238],165 nM
17,FC(F)(F)Oc1ccc2[nH]nc(-c3ccnc(N4CCN(n5cccn5)CC4)c3)c2c1 [Example 239],233 nM
18,F[C@@H]1CCN(c2cc(-c3n[nH]c4ccc(OC(F)(F)F)cc34)ccn2)C1 [Example 240],206 nM
19,FC(F)(F)Oc1ccc2[nH]nc(-c3ccnc(N4CC(n5cccn5)C4)c3)c2c1 [Example 241],315 nM
20,FC1(F)CCN(c2cc(-c3n[nH]c4ccc(OC(F)(F)F)cc34)ccn2)CC1 [Example 243],1060 nM
21,FC(F)(F)Oc1ccc2[nH]nc(-c3ccnc(N4CCN(C5CC5)CC4)c3)c2c1 [Example 244],188 nM
22,FC1(F)CCN(c2cc(-c3n[nH]c4ccc(OC(F)(F)F)cc34)ccn2)C1 [Example 245],1490 nM
23,COC1CN(c2cc(-c3n[nH]c4ccc(OC(F)(F)F)cc34)ccn2)C1 [Example 246],289 nM
24,FC1(F)CN(c2cc(-c3n[nH]c4ccc(OC(F)(F)F)cc34)ccn2)C1 [Example 247],369 nM
